Test results taken from patent publication US9656981B2, “Peripherally-acting cannabinoid receptor agonists for chronic pain” (The Regents of the University of California, priority 2012, dated 2017).
“Also recorded” adds a separate entry of the source. Like-named read-outs stand apart in the source and are kept apart here.

Legend:
CB1R = CB1R (Homo sapiens, UniProt P21554); experiment: CB1R radioligand displacement binding assay (CP55940 radioligand)
Method: Heterologous competition binding assays were performed to calculate receptor affinities. Unlabeled SR141716 or SR144528 were used as appropriate controls for non-specific binding (NSB) in the assay. Calculation of the equilibrium dissociation constant (Ki) was performed using the Cheng-Prusoff equation.

CB2R = CB2R (Homo sapiens, UniProt P34972); experiment: CB2R radioligand displacement binding assay (CP55940 radioligand); settings: Table 1; CP55940 radioligand; read-out: CB2_KI_CP
Chain of CB2R (P34972 whole entry): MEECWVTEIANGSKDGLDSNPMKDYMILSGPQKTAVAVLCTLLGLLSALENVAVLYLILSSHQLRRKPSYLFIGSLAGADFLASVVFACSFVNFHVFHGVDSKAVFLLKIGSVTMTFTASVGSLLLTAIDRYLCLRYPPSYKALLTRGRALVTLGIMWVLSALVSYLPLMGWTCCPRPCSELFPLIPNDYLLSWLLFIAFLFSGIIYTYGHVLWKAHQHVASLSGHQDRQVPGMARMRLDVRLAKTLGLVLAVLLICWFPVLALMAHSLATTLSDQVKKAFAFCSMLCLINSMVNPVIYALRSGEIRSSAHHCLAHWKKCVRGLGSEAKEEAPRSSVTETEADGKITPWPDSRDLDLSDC

human CB1R (hCB1R) = human CB1R (hCB1R) (Homo sapiens, UniProt P21554); experiment: human CB1R (hCB1R) calcium flux assay; assay type: cell-based; settings: Table 1; read-out: Ca Flux % Emax
Chain of human CB1R (hCB1R) (P21554 whole entry): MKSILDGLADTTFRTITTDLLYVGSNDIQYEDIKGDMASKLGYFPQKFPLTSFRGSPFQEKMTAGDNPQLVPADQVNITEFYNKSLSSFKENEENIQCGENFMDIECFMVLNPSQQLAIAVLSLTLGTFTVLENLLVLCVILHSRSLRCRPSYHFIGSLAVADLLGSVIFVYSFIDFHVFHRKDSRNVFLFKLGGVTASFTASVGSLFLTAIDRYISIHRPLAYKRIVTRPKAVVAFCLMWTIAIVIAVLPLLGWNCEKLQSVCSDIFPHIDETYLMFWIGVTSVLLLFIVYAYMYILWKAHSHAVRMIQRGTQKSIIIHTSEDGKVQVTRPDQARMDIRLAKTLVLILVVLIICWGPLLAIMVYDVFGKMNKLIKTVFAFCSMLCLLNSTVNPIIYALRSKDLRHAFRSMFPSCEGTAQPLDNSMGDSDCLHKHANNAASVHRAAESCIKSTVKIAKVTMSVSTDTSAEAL
Text: Compounds were first screened for: a) CB1R and CB2R binding, b) CB1R agonist activity using the human CB1R (hCB1R) calcium flux assay, and c) BBB permeability using the Madin-Darby canine kidney (MDCK-MDR1) cell line assay.
The calcium 3 dye assays were run according to manufacturer's specifications (http://www.moleculardevices.com/Products/Assay-Kits/GPCRs/FLIPR-Calcium.html) and as reported in our previous publications^112,113. Briefly, wells of black clear-bottom 96-well tissue culture-treated plates are seeded with 20,000 cells the afternoon before assay. The day of assay, the cells are incubated with the Ca^2+ indicator dye for 1 hr @ 37° C. For antagonist assays, the test compound is preincubated with the cells during the last 10 min of the dye incubation. Basal or unstimulated fluorescence intensity is recorded in the FlexStation @ 37° C. for 13 sec followed by the addition of test compound or CP 55,940 (depending on the assay endpoint). Fluorescence intensity is recorded for an additional 47 sec. The effect of test compound in each well is determined by subtracting the minimum from the maximum fluorescence during the 47-sec recording period.

[1] = tested on: sciatic nerve entrapment (SNE) neuropathy; experiment: SNE neuropathy, mechanical allodynia (von Frey); assay type: in vivo, rat
Method: The effectiveness of CBR agonists was tested for alleviating the painful symptoms of neuropathy induced by unilateral sciatic nerve entrapment (SNE)^131. The peripheral neuropathy induced by SNE is highly comparative to that of chronic constriction injury (CCI), which uses chromic gut suture materials instead of polyethylene cuffs^132. […] This increased excitability is at least in part attributable to injury-induced post-transcriptional transport of the voltage-gated sodium channel 1.8 (NaV1.8) mRNA, axonal accumulation of NaV1.8 mRNA, and its local protein translation leading to the increased NaV1.8 functional expression in injured nerve^136. The hyperexcitability and ectopic burst discharge of primary sensory neurons are widely considered to be the major contributors to pain symptomatology of peripheral neuropathy models. The SNE-induced mechanical allodynia effectively models the most common complaint of human neuropathy patients of dynamic mechanical allodynia. Behavioral measurements of mechanical sensitivity were conducted before and after induction of SNE as follows:
(§1) Rats are placed in a plastic-walled cage (10×20×13 cm) with a metal mesh floor (0.6×0.6 cm holes) and allowed to acclimate for 10 min. The amount of pressure (g) needed to evoke a hindpaw withdrawal response is measured 4 times on each paw separated by 30-s intervals using a von Frey-type digital meter (Model 1601C, IITC Instr.). Results of 4 tests/session are averaged for each paw.

rats [2] = experiment: Catalepsy (ring) test of the tetrad; assay type: in vivo, rat
Method: Catalepsy (ring) test. Catalepsy was determined with a ring immobility test^154, modified for rats^139, 153. Rats are placed with their forepaws on a horizontal metal ring (12 cm diameter) at a height that allows their hindpaws to just touch the bench surface. Immobility is recorded as the time for the rat to move off the ring with a 100 s cutoff. Rats are tested before vehicle/drug injections and again at various times after injection.

rats [3] = experiment: Hypothermia test of the tetrad; assay type: in vivo, rat
Method: Rats are acclimated to a plastic restrainer apparatus (Model RTV-180 Braintree Scientific Inc.) on the day of testing by placing them in the restrainer twice for 5 min separated by 20 min. Baseline core temperature is taken before treatment, and the rectal temperature is measured again at various times after injection of the CB1R ligands.

rats [4] = experiment: Tail-flick test of the tetrad; assay type: in vivo, rat; settings: 0.3 mg/kg, intraperitoneal
Text: A modified Hargreaves apparatus (Model 390, IITC Instr.) is used to measure tail-flick latency (TFL). Radiant heat is directed to a point 3 cm from the tail tip and the TFL observed and timed with a photo cell counter. The intensity of the radiant heat is adjusted for a baseline TFL of approximately 5-7 seconds for naïve rats, with a 25 s cutoff set to avoid tissue damage (see FIG. 3).

[5] = tested on: CFA-induced mechanical allodynia; experiment: CFA chronic inflammation, mechanical allodynia; assay type: in vivo, rat; settings: systemic injection
Method: as §1
Compounds were tested in a well-established model of chronic inflammation. In this model, unilateral intraplantar injection of complete Freund's adjuvant (CFA) leads to long-lasting symptoms of mechanical allodynia and thermal hyperalgesia of the affected hindpaw, which is alleviated by local, […] administration of CB1R ligands^125, 155. […] This is consistent with the higher CB1R affinity of our novel compound 13339-145-35 (Compound 9, see Table 1) compared with the AstraZeneca AZ11713908 compound^125.

[6] = Pharmacokinetic profiling: plasma, CSF and brain levels by LC-MS/MS; assay type: in vivo, rat
Method: Pharmacokinetic profiling of novel compounds is prerequisite to their clinical development. […] Plasma, cerebrospinal fluid (CSF), and brain samples were analyzed by LC-MS/MS and quantified using standard curves prepared from appropriate drug dilutions in fluids obtained from untreated animals.
Measurements of brain levels are a must for putative peripherally-restricted analogs. Total brain levels include drug partitioned into brain lipids+unbound drug in equilibrium with extracellular fluid. Therefore, cerebrospinal fluid (CSF)/plasma ratios are considered to be more precise estimates of brain penetration of a given drug because of the continuity of CSF with extracellular space^174. However, both measures are needed to confirm minimal CNS access and to compare with other reported peripherally-restricted CB1R ligands^110, 111. […] Plasma, brain and CSF samples were obtained at ˜75 min after PrNMI administration. Data presented as mean±SEM, n=3 rats.

Chain of CB1R (P21554 whole entry): as above

`CCCc1ccc(/C=C2\C=C(CCN3CCOCC3)c3ccccc32)c2ccccc12` [Compound 9, 4-{2-[(1E)-1-[(4-propylnaphthalen-1-yl)methylidene]-1H-inden-3-yl]ethyl} morpholine] showed a Ki (CB1R) of 1 nM, a Ki (CB1R; read-out: CB1R binding affinity (Ki)) of 1.18 nM and a Ki (CB2R) of 1 nM. The Emax (human CB1R (hCB1R)) was 108%, the “effect on SNE-induced mechanical allodynia (ipsilateral hindpaw withdrawal thresholds)” value ([1]; 0.3 mg/kg, systemic injection) was “large, reversible increases” and the “SNE Neuropath Assay-% return to pre-drug (0.3 mg/kg) contralateal threshold at 2-3 h” value ([1]; 0.3 mg/kg, 2-3 h) was 110%. The “effect on contralateral hindpaw withdrawal thresholds” value ([1]; 0.3 mg/kg, hindpaw contralateral to SNE) was “small, but significant increases”, the “effect on SNE-induced mechanical allodynia” value ([1]; 0.6 mg/kg) was “Suppression of SNE-induced mechanical allodynia” and the “suppression of neuropathy symptoms after oral administration” value ([1]; 3 mg/kg, gavage) was “effective in suppressing neuropathy symptoms”. For the same compound, the “anti-allodynic effects at the 24 hr time point after oral administration” value ([1]; 3 mg/kg, gavage, 24 hr) was “potent anti-allodynic effects”, the “effect in the catalepsy assay” value (rats [2]; 0.3 mg/kg, intraperitoneal, listed as 13339-145-35) was “no effect; also recorded: complete lack of effects” and the “Catalepsy % change from pre-drug (0.3 mg/kg) at 1-3 hrs” value (rats [2]; 1-3 hrs) was 0%. For the same compound, the “effect in the hypothermia assay” value (rats [3]; 0.3 mg/kg, intraperitoneal) was “no effect”, the “Hypothermia % change from predrug (0.3 mg/kg) at 2-3 hr” value (rats [3]; 2-3 hr) was 0% and the “effect in the tail-flick assay” value (rats [4]) was “small effect”. For the same compound, the “effect on CFA-induced mechanical allodynia” value [5] was “small but significant relief”, the “penetration into the CNS after systemic administration” value ([6]; plasma, brain and CSF samples) was “minimal penetration” and the Kp ([6]; rat, CSF and plasma, intraperitoneal, 0.3 mg/kg, i.p., ~75 min after administration, mean±SEM, n=3 rats) was 0.001 ± 0.0005. The Kp at 1.25 h ([6]; rat, brain and plasma, ip, 0.3 mg/kg, i.p., ~75 min after administration, mean±SEM, n=3 rats) was 0.182 ± 0.043.
